Test results taken from ChEMBL document CHEMBL1201862, “PubChem BioAssay data set” (2004).
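96-well plates; 48 h exposure; 5 concentrations. Endpoints by linear interpolation between flanking doses. Not reached: highest tested concentration assigned. GI50 = concentration required for 50% inhibition of growth.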 Calls of active or inactive are those of the source. No stated cut-off is given here; in the data, active = GI50 up to about 1.1 µM and inactive = higher.

Legend:
Test in all cases: NCI-60 cell line screen, 48 h
786-0 = tested on: 786-0
A549 = tested on: A549
COLO 205 = tested on: COLO 205
DU-145 = tested on: DU-145
EKVX = tested on: EKVX
IGROV-1 = tested on: IGROV-1
KM12 = tested on: KM12
MDA-N = tested on: MDA-N
MOLT-4 = tested on: MOLT-4
NCI-H522 = tested on: NCI-H522
OVCAR-4 = tested on: OVCAR-4
OVCAR-5 = tested on: OVCAR-5
SF-268 = tested on: SF-268
SK-MEL-5 = tested on: SK-MEL-5
SNB-75 = tested on: SNB-75
TK-10 = tested on: TK-10
UACC-62 = tested on: UACC-62
UO-31 = tested on: UO-31
CCRF-CEM = tested on: CCRF-CEM
HCC 2998 = tested on: HCC 2998

Measured: GI50

CN(C)CC(C)(C)CN1c2ccccc2Sc2ccccc21
inactive: 786-0 12.9 µM | A549 15.5 µM | COLO 205 12.2 µM | DU-145 12.4 µM | EKVX 15.4 µM | IGROV-1 14.9 µM | KM12 12.8 µM | MDA-N 15 µM | MOLT-4 6.55 µM | NCI-H522 13.2 µM | OVCAR-4 12.9 µM | OVCAR-5 14.8 µM | SF-268 14.5 µM | SK-MEL-5 16 µM | SNB-75 4.28 µM | TK-10 13.9 µM | UACC-62 14.9 µM

CC(=O)OCC1OC(N2C(=O)NC(=O)C3C=C4CCCCC4=CC32)CC1OC(C)=O (configuration not stated)
inactive: 786-0 > 100 µM | A549 > 100 µM | DU-145 > 100 µM | EKVX > 100 µM | IGROV-1 > 100 µM | KM12 > 100 µM | MDA-N > 100 µM | MOLT-4 > 100 µM | NCI-H522 70 µM | OVCAR-4 > 100 µM | OVCAR-5 > 100 µM | SF-268 > 100 µM | SNB-75 56.4 µM | TK-10 > 100 µM | UACC-62 > 100 µM | UO-31 > 100 µM

COc1cc(C2C(Cl)C(=O)N2NC(=O)Cc2ccccc2)ccc1O (configuration not stated)
inactive: 786-0 83.2 µM | A549 > 100 µM | CCRF-CEM 23.9 µM | COLO 205 > 100 µM | EKVX > 100 µM | HCC 2998 57.5 µM | IGROV-1 > 100 µM | KM12 91 µM | MOLT-4 24.6 µM | NCI-H522 21.3 µM | OVCAR-4 > 100 µM | OVCAR-5 > 100 µM | SF-268 > 100 µM | SK-MEL-5 69.7 µM | SNB-75 35.8 µM | TK-10 > 100 µM | UACC-62 73.3 µM | UO-31 22.6 µM

N#CC1=C(N)OC2=C(CSc3ccccc32)C1c1ccc(Br)cc1 (configuration not stated)
inactive: 786-0 7.83 µM | A549 7.08 µM | CCRF-CEM 2.72 µM | COLO 205 2.94 µM | DU-145 20 µM | EKVX 2.81 µM | IGROV-1 6.97 µM | KM12 4.37 µM | MDA-N 3.32 µM | MOLT-4 2.84 µM | OVCAR-4 5.79 µM | OVCAR-5 11.6 µM | SF-268 11.1 µM | SK-MEL-5 11.6 µM | SNB-75 7.62 µM | TK-10 13.6 µM | UACC-62 6.65 µM | UO-31 11.5 µM

N#CC(c1ccccc1)c1cccc2ccccc12 (configuration not stated)
inactive: 786-0 69.5 µM | A549 20.1 µM | COLO 205 40.8 µM | DU-145 50.5 µM | EKVX 37.8 µM | HCC 2998 36.7 µM | IGROV-1 19.9 µM | KM12 21.8 µM | MOLT-4 17.5 µM | NCI-H522 22 µM | OVCAR-4 47.5 µM | OVCAR-5 85.1 µM | SF-268 19.9 µM | SK-MEL-5 18.2 µM | SNB-75 > 100 µM | TK-10 42.4 µM | UACC-62 52.2 µM | UO-31 28.2 µM

Cn1c(C(C#N)c2cc(Cl)ncn2)nc2ccccc21 (configuration not stated)
inactive: 786-0 > 100 µM | A549 > 100 µM | COLO 205 > 100 µM | DU-145 > 100 µM | EKVX > 100 µM | IGROV-1 > 100 µM | KM12 > 100 µM | MDA-N > 100 µM | MOLT-4 > 100 µM | NCI-H522 > 100 µM | OVCAR-4 > 100 µM | OVCAR-5 > 100 µM | SF-268 > 100 µM | SK-MEL-5 > 100 µM | SNB-75 > 100 µM | TK-10 > 100 µM | UO-31 > 100 µM

O=C1Nc2ccccc2N=CC1NC(=O)C(c1ccccc1)c1ccccc1 (configuration not stated)
inactive: 786-0 > 100 µM | A549 > 100 µM | CCRF-CEM > 100 µM | COLO 205 > 100 µM | EKVX > 100 µM | HCC 2998 > 100 µM | IGROV-1 > 100 µM | KM12 > 100 µM | MOLT-4 79.3 µM | NCI-H522 > 100 µM | OVCAR-4 > 100 µM | OVCAR-5 > 100 µM | SF-268 > 100 µM | SK-MEL-5 > 100 µM | SNB-75 > 100 µM | TK-10 > 100 µM | UACC-62 > 100 µM | UO-31 > 100 µM

COC(=O)C(Nc1ccc(OC)cc1)c1ccccc1 (configuration not stated)
inactive: 786-0 > 100 µM | A549 > 100 µM | CCRF-CEM > 100 µM | COLO 205 > 100 µM | DU-145 > 100 µM | EKVX > 100 µM | IGROV-1 > 100 µM | KM12 > 100 µM | MDA-N > 100 µM | MOLT-4 > 100 µM | NCI-H522 > 100 µM | OVCAR-5 > 100 µM | SF-268 > 100 µM | SK-MEL-5 > 100 µM | TK-10 > 100 µM | UACC-62 > 100 µM | UO-31 > 100 µM

O=C(Nn1c(-c2ccccc2)nc2ccccc2c1=O)c1ccccn1
inactive: 786-0 > 100 µM | A549 > 100 µM | CCRF-CEM 41.5 µM | COLO 205 > 100 µM | DU-145 > 100 µM | EKVX > 100 µM | HCC 2998 > 100 µM | IGROV-1 > 100 µM | KM12 83.6 µM | MOLT-4 > 100 µM | NCI-H522 72.8 µM | OVCAR-4 > 100 µM | SF-268 > 100 µM | SK-MEL-5 37.7 µM | SNB-75 42.1 µM | TK-10 > 100 µM | UACC-62 42.3 µM | UO-31 > 100 µM

O=C(O)CN1C=C(C(=O)c2cc3ccccc3n2S(=O)(=O)c2ccccc2)CCC1
inactive: 786-0 50.7 µM | A549 68.1 µM | CCRF-CEM 30.9 µM | COLO 205 20.9 µM | DU-145 > 100 µM | EKVX 54.8 µM | HCC 2998 69.7 µM | IGROV-1 37.2 µM | KM12 37.1 µM | MOLT-4 38.5 µM | OVCAR-4 83.9 µM | OVCAR-5 > 100 µM | SF-268 > 100 µM | SK-MEL-5 24.9 µM | SNB-75 27.5 µM | TK-10 > 100 µM | UACC-62 83 µM | UO-31 30.4 µM

CCC[C@H]1C(=O)N=C(N)N1C(=O)OCc1ccccc1
inactive: 786-0 > 100 µM | COLO 205 > 100 µM | EKVX > 100 µM | HCC 2998 > 100 µM | IGROV-1 > 100 µM | KM12 > 100 µM | MDA-N > 100 µM | MOLT-4 > 100 µM | NCI-H522 > 100 µM | OVCAR-4 > 100 µM | OVCAR-5 > 100 µM | SF-268 > 100 µM | SK-MEL-5 > 100 µM | SNB-75 > 100 µM | TK-10 > 100 µM | UACC-62 > 100 µM | UO-31 86.9 µM
